In US8084398B2, “Benzoylpyrazoles and herbicide” (Bayer Cropscience AG, priority 2006, dated 2011):

Legend:
Amaranthus lividus = assay: Herbicidal efficacy against field weeds, pre-emergence soil spray treatment (Test Example 1); type: in vivo; settings: 500 g ai/ha, 2 weeks after treatment, 100% = complete death, 0% = no efficacy
Procedure: (§1) Test for herbicidal efficacy against field weeds (Pre-emergence soil spray treatment) Preparation of formulation of the active compound
(§2) Carrier: DMF 5 parts by weight
(§3) Emulsifier: Benzyloxy polyglycol ether 1 part by weight
(§4) A suitable formulation of an active compound is obtained as an emulsifiable concentrate by mixing 1 part by weight of the active compound with the stated amounts of the carrier and emulsifier. A prescribed amount of the formulation is diluted with water.
(§5) In a green house, the seeds of field weeds (Amaranthus lividus and Setaria viridis) were inoculated by one species per pot on the surface layer in 16 cm^2 pots filled with field soil (sand loam) and covered with soil. Immediately after the inoculation, the prescribed and diluted solutions of the formulations of respective active compounds prepared according to the above preparation method, were sprayed to the soil. After 2 weeks from the treatment, the herbicidal efficacy of respective active compounds was examined. The evaluation of the herbicidal efficacy was carried out by rating complete death as 100% and as 0% in case of no herbicidal efficacy. In case of showing herbicidal efficacy of 80% or more, such active compounds are evaluated to be practical as herbicides. As typical examples, the study results with Compound Nos. 19 and 96 and those with Comparative compound C-1 are shown in Table 2 below.

Setaria viridis [1] = assay: as above; type: in vivo; settings: 500 g ai/ha, 2 weeks after treatment, 100% = complete death, 0% = no efficacy
Procedure: as §1, §2, §3, §4, §5

Setaria viridis [2] = assay: Herbicidal efficacy against field weeds, after-emergence stalk and leaf spray treatment (Test Example 2); type: in vivo; settings: 2- to 3-leaf stage, 500 g ai/ha, 2 weeks after treatment, 100% = complete death
Procedure: as §4, §5
Test for herbicidal efficacy against field weeds (After-emerge stalk and leave spray treatment) […]

Cc1nn(C)c(O)c1C(=O)c1ccc(Cl)c(OCCn2cnnn2)c1Cl
melting point: 63 to 68 °C

CS(=O)(=O)c1ccc(C(=O)C2C(=O)CCCC2=O)c(Cl)c1 [C-1]
herbicidal efficacy, Amaranthus lividus (Amaranthus lividus): 70%
herbicidal efficacy, Setaria viridis (Setaria viridis [1]): 30%
herbicidal efficacy, Setaria viridis (Setaria viridis [2]): 40%
